According to ChEMBL document CHEMBL1275282, “Synthesis, characterization, oxidative degradation, antibacterial activity and acetylcholinesterase/butyrylcholinesterase inhibitory effects of some new phosphorus(V) hydrazides” (Eur J Med Chem, 2010):

Molecular target: Cholinesterases; ACHE & BCHE (Homo sapiens) (UniProt P06276+P22303)
Assay: Selectivity ratio of IC50 for human BChE over IC50 for human AChE by Ellman method

Sequence of Cholinesterases; ACHE & BCHE (Homo sapiens) (P06276 whole entry, looked up): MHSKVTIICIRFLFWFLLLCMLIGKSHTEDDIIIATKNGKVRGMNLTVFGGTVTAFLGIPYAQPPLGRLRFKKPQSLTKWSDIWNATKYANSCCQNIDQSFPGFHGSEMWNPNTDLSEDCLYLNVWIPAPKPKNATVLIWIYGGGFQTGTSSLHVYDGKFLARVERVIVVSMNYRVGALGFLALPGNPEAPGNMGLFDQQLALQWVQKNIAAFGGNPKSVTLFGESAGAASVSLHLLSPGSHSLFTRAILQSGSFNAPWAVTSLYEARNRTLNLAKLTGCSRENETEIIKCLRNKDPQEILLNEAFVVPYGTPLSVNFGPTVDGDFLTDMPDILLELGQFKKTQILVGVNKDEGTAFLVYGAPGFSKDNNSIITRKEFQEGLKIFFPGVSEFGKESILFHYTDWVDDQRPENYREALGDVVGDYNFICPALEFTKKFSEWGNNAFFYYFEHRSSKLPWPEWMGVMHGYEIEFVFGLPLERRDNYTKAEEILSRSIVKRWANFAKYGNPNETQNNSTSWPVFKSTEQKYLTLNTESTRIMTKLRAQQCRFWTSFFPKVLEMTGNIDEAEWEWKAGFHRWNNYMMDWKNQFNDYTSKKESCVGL
Sequence of Cholinesterases; ACHE & BCHE (Homo sapiens) (P22303 whole entry, looked up): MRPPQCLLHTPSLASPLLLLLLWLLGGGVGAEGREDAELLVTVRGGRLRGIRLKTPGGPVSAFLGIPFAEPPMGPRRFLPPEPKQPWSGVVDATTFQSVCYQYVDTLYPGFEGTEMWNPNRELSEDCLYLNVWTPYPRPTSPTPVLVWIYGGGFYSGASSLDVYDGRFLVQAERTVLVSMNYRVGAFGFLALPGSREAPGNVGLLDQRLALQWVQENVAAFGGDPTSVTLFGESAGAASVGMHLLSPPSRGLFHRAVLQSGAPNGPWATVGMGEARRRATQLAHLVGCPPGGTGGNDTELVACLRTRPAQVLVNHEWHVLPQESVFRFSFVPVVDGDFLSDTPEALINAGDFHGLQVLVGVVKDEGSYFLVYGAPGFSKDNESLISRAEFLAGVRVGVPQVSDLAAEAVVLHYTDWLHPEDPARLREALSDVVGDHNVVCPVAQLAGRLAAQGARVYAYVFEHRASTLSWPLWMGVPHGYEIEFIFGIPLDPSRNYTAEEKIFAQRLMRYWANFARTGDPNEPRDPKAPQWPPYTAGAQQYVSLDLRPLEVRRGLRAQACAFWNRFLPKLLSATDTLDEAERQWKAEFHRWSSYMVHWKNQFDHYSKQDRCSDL

## O=P(O)(NN1CCCCC1)Oc1ccccc1
  Ratio IC50: 4
